Experimental data taken from ChEMBL document CHEMBL3045614, “Antifeedant activity of vicolides from Pentanema indicum” (1999).

tested on: Olepa ricini; assay: Antifeedant activity against moulted fifth larval stage of Olepa ricini infested on castor leaves assessed as feeding deterrence index at 0.2 ppm by leaf disk assay relative to control; type: functional

SMILES | FDI [%]
C=C1C(=O)O[C@@H]2C/C(C)=C\C(=O)C[C@@H](C)[C@@H](OC(=O)[C@]3(C)O[C@@H]3C)[C@H](O)[C@@H]12 [VICOLIDE D] | 10.61
C=C1C(=O)O[C@H]2[C@H]1[C@@H](OC(=O)[C@@H](C)CC)[C@H](OC(C)=O)[C@H](C)C[C@@H](O)[C@H]1O[C@@]1(C)[C@@H]2O [VICOLIDE C] | 4.44
C=C1C(=O)O[C@@H]2C/C(C)=C\C(=O)C[C@@H](C)[C@@H](OC(=O)/C(C)=C\C)[C@H](O)[C@@H]12 [VICOLIDE B] | 12.83
C=C1C(=O)O[C@H]2[C@H]1[C@@H](O)[C@H](OC(=O)/C(C)=C\C)[C@H](C)[C@@H]1C(=O)C=C(C)[C@H]21 [VICOLIDE A] | 6.17

tested on: Euproctis fraterna; assay: Antifeedant activity against moulted fifth larval stage of Euproctis fraterna infested castor leaves assessed as feeding deterrence index at 2000 ppm by leaf disk assay relative to control; type: functional

SMILES | FDI [%]
C=C1C(=O)O[C@@H]2C/C(C)=C\C(=O)C[C@@H](C)[C@@H](OC(=O)[C@]3(C)O[C@@H]3C)[C@H](O)[C@@H]12 [VICOLIDE D] | 35.68
C=C1C(=O)O[C@H]2[C@H]1[C@@H](OC(=O)[C@@H](C)CC)[C@H](OC(C)=O)[C@H](C)C[C@@H](O)[C@H]1O[C@@]1(C)[C@@H]2O [VICOLIDE C] | 26.56
C=C1C(=O)O[C@@H]2C/C(C)=C\C(=O)C[C@@H](C)[C@@H](OC(=O)/C(C)=C\C)[C@H](O)[C@@H]12 [VICOLIDE B] | 57.03
C=C1C(=O)O[C@H]2[C@H]1[C@@H](O)[C@H](OC(=O)/C(C)=C\C)[C@H](C)[C@@H]1C(=O)C=C(C)[C@H]21 [VICOLIDE A] | 15.06

tested on: Olepa ricini; assay: Antifeedant activity against moulted fifth larval stage of Olepa ricini infested on castor leaves assessed as feeding deterrence index at 20 ppm by leaf disk assay relative to control; type: functional

SMILES | FDI [%]
C=C1C(=O)O[C@@H]2C/C(C)=C\C(=O)C[C@@H](C)[C@@H](OC(=O)[C@]3(C)O[C@@H]3C)[C@H](O)[C@@H]12 [VICOLIDE D] | 27.62
C=C1C(=O)O[C@H]2[C@H]1[C@@H](OC(=O)[C@@H](C)CC)[C@H](OC(C)=O)[C@H](C)C[C@@H](O)[C@H]1O[C@@]1(C)[C@@H]2O [VICOLIDE C] | 17.74
C=C1C(=O)O[C@@H]2C/C(C)=C\C(=O)C[C@@H](C)[C@@H](OC(=O)/C(C)=C\C)[C@H](O)[C@@H]12 [VICOLIDE B] | 24.36
C=C1C(=O)O[C@H]2[C@H]1[C@@H](O)[C@H](OC(=O)/C(C)=C\C)[C@H](C)[C@@H]1C(=O)C=C(C)[C@H]21 [VICOLIDE A] | 22.28

tested on: Euproctis fraterna; assay: Antifeedant activity against moulted fifth larval stage of Euproctis fraterna infested castor leaves assessed as feeding deterrence index at 20 ppm by leaf disk assay relative to control; type: functional

SMILES | FDI [%]
C=C1C(=O)O[C@@H]2C/C(C)=C\C(=O)C[C@@H](C)[C@@H](OC(=O)[C@]3(C)O[C@@H]3C)[C@H](O)[C@@H]12 [VICOLIDE D] | 15.37
C=C1C(=O)O[C@H]2[C@H]1[C@@H](OC(=O)[C@@H](C)CC)[C@H](OC(C)=O)[C@H](C)C[C@@H](O)[C@H]1O[C@@]1(C)[C@@H]2O [VICOLIDE C] | 22.37
C=C1C(=O)O[C@@H]2C/C(C)=C\C(=O)C[C@@H](C)[C@@H](OC(=O)/C(C)=C\C)[C@H](O)[C@@H]12 [VICOLIDE B] | 20.28
C=C1C(=O)O[C@H]2[C@H]1[C@@H](O)[C@H](OC(=O)/C(C)=C\C)[C@H](C)[C@@H]1C(=O)C=C(C)[C@H]21 [VICOLIDE A] | 15.33

tested on: Olepa ricini; assay: Antifeedant activity against moulted fifth larval stage of Olepa ricini infested on castor leaves assessed as feeding deterrence index at 2000 ppm by leaf disk assay relative to control; type: functional

SMILES | FDI [%]
C=C1C(=O)O[C@@H]2C/C(C)=C\C(=O)C[C@@H](C)[C@@H](OC(=O)[C@]3(C)O[C@@H]3C)[C@H](O)[C@@H]12 [VICOLIDE D] | 46.88
C=C1C(=O)O[C@H]2[C@H]1[C@@H](OC(=O)[C@@H](C)CC)[C@H](OC(C)=O)[C@H](C)C[C@@H](O)[C@H]1O[C@@]1(C)[C@@H]2O [VICOLIDE C] | 38.26
C=C1C(=O)O[C@@H]2C/C(C)=C\C(=O)C[C@@H](C)[C@@H](OC(=O)/C(C)=C\C)[C@H](O)[C@@H]12 [VICOLIDE B] | 48.68
C=C1C(=O)O[C@H]2[C@H]1[C@@H](O)[C@H](OC(=O)/C(C)=C\C)[C@H](C)[C@@H]1C(=O)C=C(C)[C@H]21 [VICOLIDE A] | 42.86

tested on: Olepa ricini; assay: Antifeedant activity against moulted fifth larval stage of Olepa ricini infested on castor leaves assessed as feeding deterrence index at 200 ppm by leaf disk assay relative to control; type: functional

SMILES | FDI [%]
C=C1C(=O)O[C@@H]2C/C(C)=C\C(=O)C[C@@H](C)[C@@H](OC(=O)[C@]3(C)O[C@@H]3C)[C@H](O)[C@@H]12 [VICOLIDE D] | 40.93
C=C1C(=O)O[C@H]2[C@H]1[C@@H](OC(=O)[C@@H](C)CC)[C@H](OC(C)=O)[C@H](C)C[C@@H](O)[C@H]1O[C@@]1(C)[C@@H]2O [VICOLIDE C] | 30.59
C=C1C(=O)O[C@@H]2C/C(C)=C\C(=O)C[C@@H](C)[C@@H](OC(=O)/C(C)=C\C)[C@H](O)[C@@H]12 [VICOLIDE B] | 40.93
C=C1C(=O)O[C@H]2[C@H]1[C@@H](O)[C@H](OC(=O)/C(C)=C\C)[C@H](C)[C@@H]1C(=O)C=C(C)[C@H]21 [VICOLIDE A] | 29.66

tested on: Euproctis fraterna; assay: Antifeedant activity against moulted fifth larval stage of Euproctis fraterna infested castor leaves assessed as feeding deterrence index at 200 ppm by leaf disk assay relative to control; type: functional

SMILES | FDI [%]
C=C1C(=O)O[C@@H]2C/C(C)=C\C(=O)C[C@@H](C)[C@@H](OC(=O)[C@]3(C)O[C@@H]3C)[C@H](O)[C@@H]12 [VICOLIDE D] | 20.46
C=C1C(=O)O[C@H]2[C@H]1[C@@H](OC(=O)[C@@H](C)CC)[C@H](OC(C)=O)[C@H](C)C[C@@H](O)[C@H]1O[C@@]1(C)[C@@H]2O [VICOLIDE C] | 26.76
C=C1C(=O)O[C@@H]2C/C(C)=C\C(=O)C[C@@H](C)[C@@H](OC(=O)/C(C)=C\C)[C@H](O)[C@@H]12 [VICOLIDE B] | 22.54
C=C1C(=O)O[C@H]2[C@H]1[C@@H](O)[C@H](OC(=O)/C(C)=C\C)[C@H](C)[C@@H]1C(=O)C=C(C)[C@H]21 [VICOLIDE A] | 15.33

tested on: Euproctis fraterna; assay: Antifeedant activity against moulted fifth larval stage of Euproctis fraterna infested castor leaves assessed as feeding deterrence index at 0.2 ppm by leaf disk assay relative to control; type: functional

SMILES | FDI [%]
C=C1C(=O)O[C@@H]2C/C(C)=C\C(=O)C[C@@H](C)[C@@H](OC(=O)[C@]3(C)O[C@@H]3C)[C@H](O)[C@@H]12 [VICOLIDE D] | 10.99
C=C1C(=O)O[C@H]2[C@H]1[C@@H](OC(=O)[C@@H](C)CC)[C@H](OC(C)=O)[C@H](C)C[C@@H](O)[C@H]1O[C@@]1(C)[C@@H]2O [VICOLIDE C] | 13.98
C=C1C(=O)O[C@@H]2C/C(C)=C\C(=O)C[C@@H](C)[C@@H](OC(=O)/C(C)=C\C)[C@H](O)[C@@H]12 [VICOLIDE B] | 12.17
C=C1C(=O)O[C@H]2[C@H]1[C@@H](O)[C@H](OC(=O)/C(C)=C\C)[C@H](C)[C@@H]1C(=O)C=C(C)[C@H]21 [VICOLIDE A] | 8.43

tested on: Olepa ricini; assay: Antifeedant activity against moulted fifth larval stage of Olepa ricini infested on castor leaves assessed as feeding deterrence index at 2 ppm by leaf disk assay relative to control; type: functional

SMILES | FDI [%]
C=C1C(=O)O[C@@H]2C/C(C)=C\C(=O)C[C@@H](C)[C@@H](OC(=O)[C@]3(C)O[C@@H]3C)[C@H](O)[C@@H]12 [VICOLIDE D] | 17.74
C=C1C(=O)O[C@H]2[C@H]1[C@@H](OC(=O)[C@@H](C)CC)[C@H](OC(C)=O)[C@H](C)C[C@@H](O)[C@H]1O[C@@]1(C)[C@@H]2O [VICOLIDE C] | 9.61
C=C1C(=O)O[C@@H]2C/C(C)=C\C(=O)C[C@@H](C)[C@@H](OC(=O)/C(C)=C\C)[C@H](O)[C@@H]12 [VICOLIDE B] | 21.06
C=C1C(=O)O[C@H]2[C@H]1[C@@H](O)[C@H](OC(=O)/C(C)=C\C)[C@H](C)[C@@H]1C(=O)C=C(C)[C@H]21 [VICOLIDE A] | 13.35

tested on: Euproctis fraterna; assay: Antifeedant activity against moulted fifth larval stage of Euproctis fraterna infested castor leaves assessed as feeding deterrence index at 2 ppm by leaf disk assay relative to control; type: functional

SMILES | FDI [%]
C=C1C(=O)O[C@@H]2C/C(C)=C\C(=O)C[C@@H](C)[C@@H](OC(=O)[C@]3(C)O[C@@H]3C)[C@H](O)[C@@H]12 [VICOLIDE D] | 14.44
C=C1C(=O)O[C@H]2[C@H]1[C@@H](OC(=O)[C@@H](C)CC)[C@H](OC(C)=O)[C@H](C)C[C@@H](O)[C@H]1O[C@@]1(C)[C@@H]2O [VICOLIDE C] | 18.6
C=C1C(=O)O[C@@H]2C/C(C)=C\C(=O)C[C@@H](C)[C@@H](OC(=O)/C(C)=C\C)[C@H](O)[C@@H]12 [VICOLIDE B] | 13.98
C=C1C(=O)O[C@H]2[C@H]1[C@@H](O)[C@H](OC(=O)/C(C)=C\C)[C@H](C)[C@@H]1C(=O)C=C(C)[C@H]21 [VICOLIDE A] | 8.99
